Consider four compounds from US20220226586A1, “An Inhaler For Electronically Supervised Parenteral Administration of a Pharmaceutical Composition” (Celon Pharma S.A., priority 2019, published 2022).

Counter-ions that a name gives are not always drawn.

For series [1], the system named is treatment-resistant depression. Conditions: cited from earlier work.
The conditions of series [2]: cited from earlier work.
The conditions of series [3]: cited from earlier work. The source holds these as a separate data set.
For series [4] the following is noted: nebulized saline solution, inhalation; cited from earlier work.
Series [5] is described as follows: Pharmacokinetics of inhaled esketamine dry powder in healthy volunteers. Format: in vivo. The note with it: overall conclusion. The procedure:
Esketamine hydrochloride dry powder formulation of Example 2 was administered to healthy volunteers pulmonary, i.e. directly to the lungs using dry powder inhaler (DPI) (by self-administration).
One puff of dry powder formulation contained 4.6 mg of esketamine hydrochloride, corresponding to 4 mg of esketamine free base and excipients 18.22 mg of lactose monohydrate and 0.18 mg of magnesium stearate.
A single dose was an inhalation events consisting of 1 to 6 puffs, i.e. 4 to 24 mg of esketamine free base nominal dose.
In part A of the study, designed as a one-centre single ascending dose, the medicine was delivered in a single dose once daily (up to 6 consecutive puffs) to 18 healthy volunteer subjects. Subjects were divided into 6 cohorts, cohorts receiving 1, 2, 3, 4, 5 or 6 puffs in a single doses (inhalation events), respectively.
Collection of blood samples for determination of esketamine and esnorketamine concentration and calculation of pharmacokinetic parameters was performed for up 24 hours following the start of the test.
The aim of the study was to determine the amount of puffs needed to obtain plasma concentration similar to that sufficient to achieve antidepressant effect as for 0.20 mg/kg 40 minutes intravenous infusion. It can be predicted on the basis of literature data that this corresponds to concentration at 40 min of infusion between about 60 to 100 ng/ml. […]

In the next series the test system is NMDA receptor. The note with it: cited from earlier work.
Where [6] appears, read: after intravenous infusion of racemic ketamine.
[7] abbreviates: after oral administration of ketamine.

In the case of `CNC1(c2ccccc2Cl)CCCCC1=O` (racemic) [ketamine], the “fraction of patients with treatment-resistant depression responsive to treatment” value in series [1] (human, in vivo) is recorded as “about 2/3”. Further, in series [2] (after intravenous infusion 0.5 mg/kg for 40 minutes), the “half-period of concentration fall” value was “below 2 hours”. Further, in series [2] (intravenous infusion 0.5 mg/kg for 40 minutes, maintained for about 40 minutes), the “systemic concentration of parent drug” value is “about 200 ng/ml”. The bioavailability in series [3] (orally administered) is given as 16-20%.
As for `CN[C@]1(c2ccccc2Cl)CCCCC1=O` [esketamine hydrochloride], the inhaled bioavailability result in series [4] was “reduced”.
`CN[C@]1(c2ccccc2Cl)CCCCC1=O` [esketamine]: in series [5], the “plasma concentration profile after pulmonary administration” value was “quite smooth, consistent with a target profile and safe for chronic administration”. Further, in series [1] (40-minute i.v. infusion of 0.20 mg/kg or 0.40 mg/kg (Singh et al.)), the “antidepressant effect in TRD patients” value is recorded as “rapid onset of robust antidepressant effects”.
For the compound `NC1(c2ccccc2Cl)CCCCC1=O` (stereo not drawn) [norketamine], in the series with NMDA receptor, the “activity on NMDA receptor relative to ketamine” value is on record as “many times less active than ketamine”. Also, in series [2] (setting [6]), the “maximum concentration as % of ketamine concentration” value was 10-20% and the “percentage of AUC norketamine to ketamine” value is listed as 20-40%. In series [3] (setting [7]), the “AUC relative to ketamine” value is listed as “exceeding 1000%” and the “level as % of ketamine level” value is given as 500-1000%.
